{"source": "patent US7368279B2", "about": "“Three dimensional bioengineered smooth muscle tissue and sphincters and methods therefor” (The Regents of The University of Michigan, priority 2004, dated 2008)", "tested_on": "rat IAS cells", "experiment": "Acetylcholine-induced contraction of isolated sphincteric smooth muscle cells of adult and old rats", "format": "cell-based", "conditions": "for cell population with less than 80 μM cell length: 30 second stimulation", "experimental": "To determine the effect of acetylcholine on contraction of isolated muscle cells, acetylcholine (10^−7 M) was added to a suspension of isolated smooth muscle cells for 30 seconds or 4 minutes with untreated cells as controls. The reaction was stopped and cells were fixed by the addition of 0.1 ml of acrolein at a final concentration of 0.1%. Individual cell lengths were measured by computerized image micrometry (Bitar et al., Am J Physiol 242: G400-G407, 1982. Bitar et al., Science 216: 531-533, 1982). The length of cells in the control state or after addition of acetylcholine was obtained by measuring 30-50 cells encountered randomly in successive microscopic fields from each of three separate experiments. The contractile response is defined as the decrease in the average length of the cells counted and is expressed as the percent change from the control length. Acetylcholine-induced contraction of isolated sphincteric smooth muscle cells was defined as the percent decrease in cell length compared to control. […] In old rats, 10^−7M acetylcholine-induced contraction at 30 seconds was approximately 3-fold less forceful (12.8±4.4%) than adult rat cells. […] In addition, after acetylcholine-induced contraction, there was a preponderance of longer cells and in old rats (24% above 80 μm) when compared to adult counterparts (17% above 80).", "data": [{"smiles": "CC(=O)OCC[N+](C)(C)C", "note": "[acetylcholine]", "values": [{"measurement": "fold less forceful contraction in old than adult rat cells", "setting": "10^−7 M acetylcholine, 30 seconds", "result": "approximately 3 fold"}, {"measurement": "contraction, percent decrease in cell length compared to control", "setting": "adult rat IAS cells, 10^−7 M acetylcholine, 30 seconds", "result": "44.7±1.34", "unit": "%"}, {"measurement": "contraction, percent decrease in cell length compared to control", "setting": "adult rat IAS cells, 10^−7 M acetylcholine, 4 minutes", "result": "40.65±1.43", "unit": "%"}, {"measurement": "cell population with less than 80 μM cell length", "setting": "adult rat IAS cells, 10^−7 M acetylcholine", "result": 89, "unit": "%"}, {"measurement": "longer cells above 80 after acetylcholine-induced contraction", "setting": "adult rats", "result": 17, "unit": "%"}, {"measurement": "contraction, percent decrease in cell length compared to control", "setting": "old rat IAS cells, 10^−7 M acetylcholine, 30 seconds", "result": "12.8±4.4", "unit": "%"}, {"measurement": "contraction, percent decrease in cell length compared to control", "setting": "old rat IAS cells, 10^−7 M acetylcholine, 4 minutes", "result": "16.99±6.07", "unit": "%"}, {"measurement": "cell population with less than 80 μM cell length", "setting": "old rat IAS cells, 10^−7 M acetylcholine", "result": 71, "unit": "%"}, {"measurement": "longer cells above 80 μm after acetylcholine-induced contraction", "setting": "old rats", "result": 24, "unit": "%"}]}]}
